The subject of series [1] is L. infantum promastigotes. The series is described as follows: Antileishmanial activity against L. infantum promastigotes (luciferase assay). The format is cell-based. The conditions noted are these: Leishmania infantum, 72 h, read-out: EC50 L. infantum Pro.
In series [2] the test system is L. infantum axenic amastigotes. Nature of the series: Antileishmanial activity on L. infantum axenic amastigotes (luciferase assay). The format is cell-based. Conditions: Leishmania infantum, 48 h, read-out: EC50 L. infantum Axenic Ama.
A short description of series [3]: Cytotoxicity evaluation on HepG2 cell line (MTT). The format is cell-based. Conditions: human, HepG2 cells.
Series [4] can be described thus: Cytotoxicity on THP-1 cell line (MTT). The conditions noted are these: human, THP-1 cells, THP1 cell line. The format is cell-based. The method, boiled down:
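THP-1 cells exposed to compounds for 72 h at 37 °C, then MTT (0.5 mg/mL) for 2 h, absorbance at 570 nm. Viability expressed relative to DMSO-treated cells; CC50 is the mean of three independent experiments.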

A short description of series [5]: Mouse microsomal stability. The format is in vitro ADME. Conditions: female, CD-1, pH 7.4; mouse liver microsomes; read-out: Mouse Microsomal Stability T1/2. As for the experimental part: The tested product and propranolol, used as reference, were incubated in duplicate (reaction volume of 0.5 mL) with female mouse microsomes (CD-1, 20 mg/mL, BD Gentest™) at 37 °C in a 50 mM phosphate buffer, pH 7.4, in the presence of MgCl2 (5 mM), NADP (1 mM), glucose-6-phosphate dehydrogenase (0.4 U/mL) and glucose-6-phosphate (5 mM). […] After centrifugation at 10,000× g, 10 min, 4 °C, the supernatants were maintained at 4 °C for immediate analysis or placed at -80 °C for later analysis. Controls (t0 and tfinal) in triplicate were prepared by incubation of the internal standard with microsomes denatured by acetonitrile. […] The mobile phases were (A) ammonium acetate 10 mM and (B) acetonitrile with 0.1% formic acid. The injection volume was 1 µL and the flow rate 600 µL/min. […] Each compound was quantified by converting the average of the ratios of the analyte/internal standard surfaces to the percentage of product consumed. The ratio of the control at t0 corresponded to 0% of product consumed. The half-life (T1/2) of each compound in the presence of microsomes was calculated according to the equation: t1/2=ln(2)/k , where k is the first-order degradation constant (the slope of the logarithm of compound concentration versus incubation time). The intrinsic clearance in vitro (Clint expressed in μL/min/mg) is calculated according to the equation: Clint=dose/AUC∞/[microsomes] where “dose” is the initial concentration of product in the sample, AUC∞ is the area under the concentration-time curve extrapolated to infinity and [microsomes] is the microsome concentration expressed in mg/µL.
In general terms: Liver microsomes are vesicles of endoplasmic reticulum, rich in cytochrome P450 enzymes.

Series [6] is described as follows: Parallel artificial membrane permeability assay (PAMPA). It is filed as in vitro ADME. Conditions: for Papp at 4 h, 100 µM: PAMPA, pH 7.4, read-out: PAMPA GIT at pH 7.4 Pe. (In general: In PAMPA a lipid-coated filter parts donor from acceptor wells.)

Experimental findings from PMC9415646, “Improving Aqueous Solubility and In Vitro Pharmacokinetic Properties of the 3-Nitroimidazo[1,2-a]pyridine Antileishmanial Pharmacophore” (Pharmaceuticals, 2022) are described below.

The structures appear in SMILES notation.

`O=[N+]([O-])c1c(CS(=O)(=O)CCC(F)(F)F)nc2c(Sc3ccc(Cl)cc3)cc(Cl)cn12` [Compound 3i, 6-Chloro-8-[(4-Chlorophenyl)thio]-3-Nitro-2-[(3,3,3-Trifluoropropylsulfonyl)methyl]imidazo[1,2-a]pyridine]: the melting point was 183 °C. Moreover, the 50% effective concentration (EC50) in series [1] is 1.4 ± 0.1 µM. In addition, the EC50 in series [2] turned out to be 0.8 ± 0.3 µM. For the same compound, the CC50 at 72 h in series [3] was over 6.2 µM. In series [4], this compound displayed a CC50 at 72 h of over 50 µM. Besides, in series [5], the half-life was found to be 9.1 min. Also, in series [6], the “PAMPA GIT at pH 7.4 Pe” value came out at 6.3 nm/s and the Papp at 4 h, 100 µM stood at 0.63 ± 0.08 ×10⁻⁶ cm/s.

Take `O=[N+]([O-])c1c(CS(=O)(=O)c2ccccc2)nc2c(Sc3ccc(Cl)cc3)cc(Cl)cn12` [Hit B, reference compound]: the EC50 came out at 0.6 ± 0.1 µM in series [1] and 1.7 ± 0.3 µM in series [2]. For the same compound, the figures for the CC50 at 72 h in series [3] and in series [4] were over 100 µM and over 62.5 µM, respectively. Besides, in series [5], the half-life stood at 3 min. Besides, the “PAMPA GIT at pH 7.4 Pe” value in series [6] worked out at 4.0 nm/s. The Papp at 4 h, 100 µM in series [6] came out at 0.4 ± 0.06 ×10⁻⁶ cm/s.

`O=[N+]([O-])c1c(CS(=O)(=O)CCC(F)(F)F)nc2c(-c3ccncc3)cc(Cl)cn12` [Compound 7, 6-Chloro-3-Nitro-8-(Pyridin-4-yl)-2-[(3,3,3-Trifluoropropylsulfonyl)methyl]imidazo[1,2-a]pyridine] gave a melting point of 184 °C. The EC50 in series [1] amounted to 14 ± 0.4 µM. For the same compound, the EC50 in series [2] amounted to 14 ± 0.9 µM. The same compound showed a CC50 at 72 h in series [3] of over 100 µM. The compound also showed a CC50 at 72 h in series [4] of over 100 µM. Moreover, the half-life in series [5] was over 40 min. For the same compound, the Papp at 4 h, 100 µM in series [6] is 31.4 ± 8.72 ×10⁻⁶ cm/s.

In general, EC50 refers to the midpoint of the concentration-response curve. By CC50 is commonly meant the concentration giving 50% cytotoxicity. Low readings indicate harm at low concentration, high ones better tolerance by the cells. What is called melting point is the temperature of the solid-liquid transition.
